Experimental data from paper PMC8304610, “Discovery of Novel 2,4-Dianilinopyrimidine Derivatives Containing 4-(Morpholinomethyl)phenyl and N-Substituted Benzamides as Potential FAK Inhibitors and Anticancer Agents” (Molecules, 2021).

Tests used:
FAK kinase = target: T1, FAK kinase (Homo sapiens, UniProt Q05397); assay: ADP-Glo kinase enzymatic assay; type: biochemical; conditions: mean ± SD of three independent experiments
T1 construct: purchased Promega Corporation V9301
Method: The ADP-Glo™ Kinase Assay Kit and FAK Kinase Enzyme (Catalog. V9301) were purchased from Promega Corporation (Madison, WI, USA). The experiments were performed according to the detailed and complete protocols of the manufacturer. Briefly, the concentration of FAK determined by optimization experiments was 0.1 μg/μL. Suitable concentration gradients from 1.6 to 1000 nM were set for all the tested compounds. A kinase reaction buffer, a substrate/ATP mixture, and a FAK solution were prepared right before use. The 5 μL kinase reaction consisted of 1 μL of compound solution, 2 μL of substrate/ATP mixture, and 2 μL of FAK solution. The control without enzyme was provided by 3 μL of kinase reaction buffer and 2 μL of substrate/ATP mixture. The negative control was prepared using 1 μL of kinase reaction buffer instead of a compound solution. The kinase reactions were added to a 384-well plate and incubated at room temperature for 60 min, then 5 μL of ADP-Glo™ Reagent was added to stop the kinase reaction and deplete the unconsumed ATP, and incubated at room temperature for 40 min. After adding 10 μL of Kinase Detection Reagent, the plate was incubated at room temperature for 30 min and then luminescence was recorded (integration time 0.5–1 s) on a TriStar® LB942 Multimode Microplate Reader (BERTHOLD TECHNOLOGIES GmbH & Co. KG., Bad Wildbad, Germany). Curve fitting and data presentations were performed using GraphPad Prism version 8.0.

[1] = system: H1975 non-small cell lung cancer (NSCLC) cells; assay: CCK-8 cell viability assay, H1975; type: cell-based; conditions: Homo sapiens, NCI-H1975, CCK-8, 72 h, mean ± SD of three experiments, read-out: Antiproliferative Activity IC50, H1975
Method: (§1) The H1975 human NSCLC cell line was obtained from ATCC. A431 human epithelial carcinoma and HBE human bronchial epithelial cell lines were kind gifts from Fuheng Biological Company Ltd. (Shanghai, China) and YuXi Biotech Company (Jiangsu, China), respectively. The cells were maintained in RPMI 1640 or DMEM (Gibco®, Thermo Fisher Scientific Inc., Waltham, MA, USA) containing 10% fetal bovine serum (FBS, Gibco®) and 1% penicillin-streptomycin (Beyotime Company, Shanghai, China) at 37 °C in a 5% CO2 incubator.
(§2) A total of 3000 cells of H1975 or HBE and 5000 cells of A431 were seeded for each well into a 96-well plate and cultured in 10% FBS respective growth medium overnight. Various concentrations (0–20 μM) of each compound were then added in triplicate to the cells. After 72 h of incubation, 10 μL of CCK-8 solution (5.0 mg/mL, Biotool Company, Kirchberg, Switzerland) was added to each well and the cells continued to culture for 4 h. The optical density (OD) was determined at 450 nm with a microplate reader (Thermo Fisher Scientific, Waltham, MA, USA). IC50 values were calculated employing GraphPad Prism version 8.0.

[2] = system: A431 human epithelial carcinoma cells; assay: CCK-8 cell viability assay, A431; type: cell-based; conditions: A-431, CCK-8, 72 h, mean ± SD of three experiments, read-out: Antiproliferative Activity IC50, A431
Method: as §1, §2

[3] = system: normal human bronchial epithelial cells (HBE); assay: CCK-8 cellular selectivity assay, HBE; type: cell-based; conditions: for IC50: Homo sapiens, Epithelial cell, HBE normal cells, CCK-8, 72 h, mean ± SD of three experiments, read-out: Antiproliferative Activity IC50, HBE; for SI Values (selectivity index): IC50 for HBE cell line/IC50 for H1975 cell line
Method: as §1, §2

H1975 cells = assay: Scratch (cell migration) assay; type: cell-based, human; conditions: H1975, 0.1, 0.5, and 1 μM, 24 h
Method: H1975 cells were seeded in 6-well plates and incubated for 12 h. When cells were grown to 90–100% confluency in a monolayer, wounds were generated using a pipette tip. […] The images were captured to record the status of cells near the scratch lines at the beginning and after 12 and 24 h.

T1 sequence (Q05397 393-698 limits assumed): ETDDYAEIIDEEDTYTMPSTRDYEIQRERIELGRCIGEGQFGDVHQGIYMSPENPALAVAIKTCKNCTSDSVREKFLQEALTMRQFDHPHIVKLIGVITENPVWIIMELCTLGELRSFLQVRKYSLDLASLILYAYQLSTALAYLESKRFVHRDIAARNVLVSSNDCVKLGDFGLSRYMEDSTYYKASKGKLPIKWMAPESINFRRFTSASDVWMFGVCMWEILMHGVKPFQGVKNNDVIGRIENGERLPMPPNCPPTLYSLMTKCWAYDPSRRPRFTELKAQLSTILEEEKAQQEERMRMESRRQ

Compound | IC50 (FAK kinase) | IC50 [1] | IC50 [2] | IC50 [3] | SI Values (selectivity index) [3] | melting point | Cell migration (in words) (H1975 cells)
CC(O)CNC(=O)c1ccccc1Nc1nc(Nc2ccc(CN3CCOCC3)cc2)ncc1Cl (stereo not drawn) [Compound 8c, 2-((5-Chloro-2-((4-(morpholinomethyl)phenyl)amino)pyrimidin-4-yl)amino)-N-(2-hydroxypropyl)benzamide] | 0.03 ± 0.007 µM | 0.119 ± 0.047 µM | 0.158 ± 0.027 µM | 4.01 ± 0.231 µM | 34 | – | –
CCC(C)C(CO)NC(=O)c1ccccc1Nc1nc(Nc2ccc(CN3CCOCC3)cc2)ncc1Cl (stereo not drawn) [Compound 8i, 2-((5-Chloro-2-((4-(morpholinomethyl)phenyl)amino)pyrimidin-4-yl)amino)-N-(1-hydroxy-3-methylpentan-2-yl)benzamide] | 0.126 ± 0.021 µM | 0.815 ± 0.061 µM | 1.25 ± 0.909 µM | > 20 µM | >24 | – | –
O=C(NCCCCCCO)c1ccccc1Nc1nc(Nc2ccc(CN3CCOCC3)cc2)ncc1Cl [Compound 8g, 2-((5-Chloro-2-((4-(morpholinomethyl)phenyl)amino)pyrimidin-4-yl)amino)-N-(6-hydroxyhexyl)benzamide] | 0.198 ± 0.032 µM | 0.287 ± 0.061 µM | 0.507 ± 0.019 µM | 1.65 ± 0.813 µM | 6 | – | –
CN(CCO)C(=O)c1ccccc1Nc1nc(Nc2ccc(CN3CCOCC3)cc2)ncc1Cl [Compound 8d, 2-((5-Chloro-2-((4-(morpholinomethyl)phenyl)amino)pyrimidin-4-yl)amino)-N-(2-hydroxyethyl)-N-methylbenzamide] | 0.04 ± 0.011 µM | 0.293 ± 0.05 µM | 0.161 ± 0.082 µM | 3.83 ± 0.5 µM | 13 | – | –
O=C(NCC(O)CO)c1ccccc1Nc1nc(Nc2ccc(CN3CCOCC3)cc2)ncc1Cl (stereo not drawn) [Compound 8h, 2-((5-Chloro-2-((4-(morpholinomethyl)phenyl)amino)pyrimidin-4-yl)amino)-N-(2,3-dihydroxypropyl)benzamide] | 0.072 ± 0.007 µM | 0.219 ± 0.082 µM | 0.047 ± 0.006 µM | 0.688 ± 0.121 µM | 3 | – | –
O=C(c1ccccc1Nc1nc(Nc2ccc(CN3CCOCC3)cc2)ncc1Cl)N1CCC(Oc2no[n+]([O-])c2S(=O)(=O)c2ccccc2)CC1 [Compound 9e, 4-((1-(2-((5-Chloro-2-((4-(morpholinomethyl)phenyl)amino)pyrimidin-4-yl)amino)benzoyl)piperidin-4-yl)oxy)-3-(phenylsulfonyl)-1,2,5-oxadiazole 2-oxide] | > 1 µM | 1.72 ± 0.295 µM | 2.41 ± 0.587 µM | 0.763 ± 0.1 µM | 0.4 | 130 to 132 °C | –
O=C(c1ccccc1Nc1nc(Nc2ccc(CN3CCOCC3)cc2)ncc1Cl)N1CCC(O)CC1 [Compound 8e] | 0.129 ± 0.037 µM | 1.41 ± 0.132 µM | 0.238 ± 0.098 µM | 0.435 ± 0.045 µM | 0.3 | – | –
CC(CNC(=O)c1ccccc1Nc1nc(Nc2ccc(CN3CCOCC3)cc2)ncc1Cl)Oc1no[n+]([O-])c1S(=O)(=O)c1ccccc1 (stereo not drawn) [Compound 9c, 4-((1-(2-((5-Chloro-2-((4-(morpholinomethyl)phenyl)amino)pyrimidin-4-yl)amino)benzamido)propan-2-yl)oxy)-3-(phenylsulfonyl)-1,2,5-oxadiazole 2-oxide] | 0.089 ± 0.014 µM | 0.567 ± 0.086 µM | 1.07 ± 0.154 µM | 2.42 ± 0.546 µM | 4 | 187 to 189 °C | –
O=C(NCCCCCCOc1no[n+]([O-])c1S(=O)(=O)c1ccccc1)c1ccccc1Nc1nc(Nc2ccc(CN3CCOCC3)cc2)ncc1Cl [Compound 9g, 4-((6-(2-((5-Chloro-2-((4-(morpholinomethyl)phenyl)amino)pyrimidin-4-yl)amino)benzamido)hexyl)oxy)-3-(phenylsulfonyl)-1,2,5-oxadiazole 2-oxide] | > 1 µM | 0.592 ± 0.073 µM | 0.617 ± 0.04 µM | 3.01 ± 0.09 µM | 5 | 120 to 122 °C | –
CN(CCOc1no[n+]([O-])c1S(=O)(=O)c1ccccc1)C(=O)c1ccccc1Nc1nc(Nc2ccc(CN3CCOCC3)cc2)ncc1Cl [Compound 9d, 4-(2-(2-((5-Chloro-2-((4-(morpholinomethyl)phenyl)amino)pyrimidin-4-yl)amino)-N-methylbenzamido)ethoxy)-3-(phenylsulfonyl)-1,2,5-oxadiazole 2-oxide] | 0.066 ± 0.014 µM | 1.09 ± 0.137 µM | 2.74 ± 0.206 µM | 4.55 ± 0.533 µM | 4 | 169 to 171 °C | –
O=C(NCCCOc1no[n+]([O-])c1S(=O)(=O)c1ccccc1)c1ccccc1Nc1nc(Nc2ccc(CN3CCOCC3)cc2)ncc1Cl [Compound 9b, 4-(3-(2-((5-Chloro-2-((4-(morpholinomethyl)phenyl)amino)pyrimidin-4-yl)amino)benzamido)propoxy)-3-(phenylsulfonyl)-1,2,5-oxadiazole 2-oxide] | 0.338 ± 0.038 µM | 0.164 ± 0.051 µM | 0.138 ± 0.031 µM | 2.08 ± 0.366 µM | 13 | 144 to 146 °C | –
O=C(NCCCO)c1ccccc1Nc1nc(Nc2ccc(CN3CCOCC3)cc2)ncc1Cl [Compound 8b, 2-((5-Chloro-2-((4-(morpholinomethyl)phenyl)amino)pyrimidin-4-yl)amino)-N-(3-hydroxypropyl)benzamide] | 0.061 ± 0.009 µM | 0.075 ± 0.011 µM | 0.207 ± 0.036 µM | 1.15 ± 0.283 µM | 15 | – | –
O=C(c1ccccc1Nc1nc(Nc2ccc(CN3CCOCC3)cc2)ncc1Cl)N1CCC(COc2no[n+]([O-])c2S(=O)(=O)c2ccccc2)CC1 [Compound 9f, 4-((1-(2-((5-Chloro-2-((4-(morpholinomethyl)phenyl)amino)pyrimidin-4-yl)amino)benzoyl)piperidin-4-yl)methoxy)-3-(phenylsulfonyl)-1,2,5-oxadiazole 2-oxide] | 0.3 ± 0.009 µM | 1.57 ± 0.265 µM | 1.74 ± 0.305 µM | 3.76 ± 1.6 µM | 2 | 109 to 111 °C | –
C=CC(=O)Nc1cc(Nc2nccc(-c3cn(C)c4ccccc34)n2)c(OC)cc1N(C)CCN(C)C [Osimertinib, osimertinib, reference compound] | – | 0.116 ± 0.032 µM | 0.988 ± 0.119 µM | 1.21 ± 0.177 µM | 10 | – | –
O=C(NCCOc1no[n+]([O-])c1S(=O)(=O)c1ccccc1)c1ccccc1Nc1nc(Nc2ccc(CN3CCOCC3)cc2)ncc1Cl [Compound 9a, 4-(2-(2-((5-Chloro-2-((4-(morpholinomethyl)phenyl)amino)pyrimidin-4-yl)amino)benzamido)ethoxy)-3-(phenylsulfonyl)-1,2,5-oxadiazole 2-oxide] | 0.149 ± 0.033 µM | 0.047 ± 0.009 µM | 0.182 ± 0.032 µM | 0.916 ± 0.092 µM | 19 | 174 to 176 °C | –
CNC(=O)c1ccccc1Nc1nc(Nc2ccc(N3CCOCC3)cc2OC)ncc1Cl [TAE226, reference compound] | – | 0.141 ± 0.041 µM | 0.392 ± 0.053 µM | > 20 µM | – | – | reduced migration distances
O=C(c1ccccc1Nc1nc(Nc2ccc(CN3CCOCC3)cc2)ncc1Cl)N1CCC(CO)CC1 [Compound 8f] | 0.173 ± 0.023 µM | 2.22 ± 0.261 µM | 0.195 ± 0.097 µM | 0.862 ± 0.125 µM | 0.4 | – | –
